In the NIST ThermoML archive (doi:10.1016/j.fluid.2012.11.003):
± gives the expanded uncertainty stated by the source.

How the values were obtained:
[1] = excess molar enthalpy (molar enthalpy of mixing); xn = mol fraction of the nth substance listed; settings: 353.15 K, 101 kPa, Liquid, Flow calorimetry
[2] = activity coefficient (dimensionless); of the first substance listed, at infinite dilution; xn = mol fraction of the nth substance listed; settings: 101 kPa, Liquid, dilutor technique, x1 = 0

| Compound | activity coefficient ([2]; 313.15 K) | activity coefficient ([2]; 323.15 K) | activity coefficient ([2]; 333.15 K) | activity coefficient ([2]; 343.15 K) | activity coefficient ([2]; 353.15 K) | other results |
| --- | --- | --- | --- | --- | --- | --- |
| CCOS(=O)(=O)[O-].CCn1cc[n+](C)c1 [1-ethyl-3-methylimidazolium ethyl sulfate] + CCO | – | – | – | – | – | excess molar enthalpy ([1]; x2 = 0.0627): 0.0259 ± 0.000645 kcal/mol; excess molar enthalpy ([1]; x2 = 0.1063): 0.0446 ± 0.00103 kcal/mol; excess molar enthalpy ([1]; x2 = 0.1471): 0.0636 ± 0.00141 kcal/mol; excess molar enthalpy ([1]; x2 = 0.1979): 0.0845 ± 0.00186 kcal/mol; excess molar enthalpy ([1]; x2 = 0.267): 0.109 ± 0.00239 kcal/mol; excess molar enthalpy ([1]; x2 = 0.3288): 0.137 ± 0.00287 kcal/mol; excess molar enthalpy ([1]; x2 = 0.4017): 0.167 ± 0.00359 kcal/mol; excess molar enthalpy ([1]; x2 = 0.4504): 0.181 ± 0.00382 kcal/mol; excess molar enthalpy ([1]; x2 = 0.548): 0.206 ± 0.00454 kcal/mol; excess molar enthalpy ([1]; x2 = 0.6281): 0.219 ± 0.00478 kcal/mol; excess molar enthalpy ([1]; x2 = 0.7203): 0.219 ± 0.00478 kcal/mol; excess molar enthalpy ([1]; x2 = 0.7937): 0.205 ± 0.0043 kcal/mol; excess molar enthalpy ([1]; x2 = 0.8535): 0.174 ± 0.00382 kcal/mol; excess molar enthalpy ([1]; x2 = 0.9032): 0.13 ± 0.00287 kcal/mol; excess molar enthalpy ([1]; x2 = 0.9412): 0.0823 ± 0.00182 kcal/mol; excess molar enthalpy ([1]; x2 = 0.9776): 0.0327 ± 0.000765 kcal/mol |
| CCn1cc[n+](C)c1.COS(=O)(=O)[O-] [1-ethyl-3-methylimidazolium methylsulfate] + CCO | – | – | – | – | – | excess molar enthalpy ([1]; x2 = 0.0977): 0.033 ± 0.000789 kcal/mol; excess molar enthalpy ([1]; x2 = 0.1834): 0.0608 ± 0.00136 kcal/mol; excess molar enthalpy ([1]; x2 = 0.249): 0.0835 ± 0.00184 kcal/mol; excess molar enthalpy ([1]; x2 = 0.3794): 0.134 ± 0.00287 kcal/mol; excess molar enthalpy ([1]; x2 = 0.5247): 0.185 ± 0.00406 kcal/mol; excess molar enthalpy ([1]; x2 = 0.6059): 0.206 ± 0.00454 kcal/mol; excess molar enthalpy ([1]; x2 = 0.701): 0.218 ± 0.00478 kcal/mol; excess molar enthalpy ([1]; x2 = 0.7779): 0.209 ± 0.00454 kcal/mol; excess molar enthalpy ([1]; x2 = 0.8414): 0.183 ± 0.00406 kcal/mol; excess molar enthalpy ([1]; x2 = 0.8947): 0.14 ± 0.00311 kcal/mol; excess molar enthalpy ([1]; x2 = 0.9358): 0.091 ± 0.00198 kcal/mol; excess molar enthalpy ([1]; x2 = 0.9754): 0.0381 ± 0.000884 kcal/mol |
| CCCCO [butan-1-ol] + CCOS(=O)(=O)[O-].CCn1cc[n+](C)c1 | 1.93 ± 0.14 | 1.65 ± 0.12 | 1.39 ± 0.093 | 1.37 ± 0.092 | 1.19 ± 0.077 | – |
| CCCCO [butan-1-ol] + CCn1cc[n+](C)c1.COS(=O)(=O)[O-] | – | 2.62 ± 0.23 | 2.4 ± 0.21 | 2.05 ± 0.18 | 1.74 ± 0.12 | – |
| CCCCO [butan-1-ol] + CCn1cc[n+](C)c1.O=S(=O)([O-])O | – | 0.758 ± 0.052 | 0.62 ± 0.047 | 0.43 ± 0.041 | – | – |
| CCC(C)O (stereo unspecified) [butan-2-ol] + CCOS(=O)(=O)[O-].CCn1cc[n+](C)c1 | 1.83 ± 0.13 | 1.69 ± 0.12 | 1.56 ± 0.11 | 1.62 ± 0.11 | 1.39 ± 0.094 | activity coefficient ([2]; 303.15 K): 2.06 ± 0.18 |
| CCC(C)O (stereo unspecified) [butan-2-ol] + CCn1cc[n+](C)c1.COS(=O)(=O)[O-] | – | 4.02 ± 0.36 | 3.11 ± 0.28 | 2.58 ± 0.23 | 2.24 ± 0.2 | – |
| CCC(C)O (stereo unspecified) [butan-2-ol] + CCn1cc[n+](C)c1.O=S(=O)([O-])O | – | 1.22 ± 0.079 | 0.76 ± 0.052 | 0.566 ± 0.045 | 0.452 ± 0.042 | – |
| CCO [ethanol] + CCOS(=O)(=O)[O-].CCn1cc[n+](C)c1 | 0.783 ± 0.053 | 0.703 ± 0.05 | 0.6 ± 0.046 | 0.554 ± 0.045 | 0.534 ± 0.044 | activity coefficient ([2]; 303.15 K): 0.866 ± 0.056 |
| CCO [ethanol] + CCn1cc[n+](C)c1.COS(=O)(=O)[O-] | – | 0.449 ± 0.042 | 0.398 ± 0.041 | 0.349 ± 0.039 | 0.303 ± 0.039 | – |
| CCO [ethanol] + CCn1cc[n+](C)c1.O=S(=O)([O-])O | 0.426 ± 0.041 | 0.269 ± 0.039 | 0.177 ± 0.039 | 0.13 ± 0.039 | 0.116 ± 0.039 | – |
| CO [methanol] + CCOS(=O)(=O)[O-].CCn1cc[n+](C)c1 | 0.419 ± 0.041 | 0.406 ± 0.041 | 0.41 ± 0.041 | 0.389 ± 0.04 | 0.339 ± 0.039 | activity coefficient ([2]; 303.15 K): 0.537 ± 0.044 |
| CO [methanol] + CCn1cc[n+](C)c1.COS(=O)(=O)[O-] | – | 0.257 ± 0.039 | 0.203 ± 0.039 | 0.178 ± 0.039 | 0.105 ± 0.039 | – |
| CO [methanol] + CCn1cc[n+](C)c1.O=S(=O)([O-])O | – | 0.087 ± 0.039 | 0.078 | 0.058 | 0.041 | – |

Continued, in another order:

| activity coefficient ([2]; 313.15 K) | activity coefficient ([2]; 323.15 K) | activity coefficient ([2]; 333.15 K) | activity coefficient ([2]; 343.15 K) | activity coefficient ([2]; 353.15 K) | Compound | other results |
| --- | --- | --- | --- | --- | --- | --- |
| 1.2 ± 0.078 | 1.03 ± 0.064 | 0.914 ± 0.058 | 0.855 ± 0.055 | 0.803 ± 0.054 | CCCO [propan-1-ol] + CCOS(=O)(=O)[O-].CCn1cc[n+](C)c1 | activity coefficient ([2]; 303.15 K): 1.31 ± 0.087 |
| – | 1.05 ± 0.066 | 0.975 ± 0.06 | 0.839 ± 0.055 | 0.705 ± 0.05 | CCCO [propan-1-ol] + CCn1cc[n+](C)c1.COS(=O)(=O)[O-] | – |
| – | 0.431 ± 0.041 | 0.338 ± 0.039 | 0.233 ± 0.039 | 0.196 ± 0.039 | CCCO [propan-1-ol] + CCn1cc[n+](C)c1.O=S(=O)([O-])O | – |
| 1.31 ± 0.087 | 1.25 ± 0.082 | 1.04 ± 0.065 | 1.01 ± 0.062 | 0.966 ± 0.06 | CC(C)O [propan-2-ol] + CCOS(=O)(=O)[O-].CCn1cc[n+](C)c1 | activity coefficient ([2]; 303.15 K): 1.48 ± 0.1 |
| – | 1.33 ± 0.089 | 1.17 ± 0.075 | 1.01 ± 0.062 | 0.84 ± 0.055 | CC(C)O [propan-2-ol] + CCn1cc[n+](C)c1.COS(=O)(=O)[O-] | – |
| – | 0.577 ± 0.046 | 0.356 ± 0.04 | 0.278 ± 0.039 | 0.223 ± 0.039 | CC(C)O [propan-2-ol] + CCn1cc[n+](C)c1.O=S(=O)([O-])O | – |
